Assay results from the METLIN SMRT retention time set (Domingo-Almenara et al. 2019).

Test: gradient 5% acetonitrile 3 min, to 50% in 2 min, to 85% in 15 min, held 3 min, 100 µL/min
Details: column: Zorbax Extend-C18 2.1 x 50 mm; eluents: water / acetonitrile, 0.1% formic acid
Method in brief: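 Retention time was recorded from adduct peaks, which were picked computationally and each inspected manually. Pure standards ran in mixtures of ~100 molecules on HPLC coupled to a quadrupole time-of-flight mass spectrometer, in positive and negative ionization mode, through a Zorbax Extend-C18 column (2.1 × 50 mm, 1.8 μm) at 100 μL/min. Eluents were water and acetonitrile, each with 0.1% formic acid.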

RP-LC retention time | SMILES
1030 s | CC(C)(C)NC(=O)C1CCN(S(=O)(=O)c2cc(-c3noc(C4CCC4)n3)cs2)CC1
661 s | Cc1noc(COC2CCN(C(=O)CCc3c(C)noc3C)CC2)n1
636 s | CCn1nc(C)c(CCNC(=O)c2ccc3c(c2)NC(=O)C2CCCCN32)c1C (stereo unspecified)
647 s | O=c1n(Cc2ccccc2)nc2c(S(=O)(=O)N3CCCCC3)cccn12
1120 s | Cc1cc(C)nc(NS(=O)(=O)c2ccc(Nc3nc(-c4ccc(C(C)C)cc4)cs3)cc2)n1
562 s | Cc1nc([C@@H]2CN(C(=O)c3cccs3)C[C@H]2C(N)=O)n[nH]1
1140 s | COc1ccc(-c2csc(NC(=O)c3ccc(Cl)c(Cl)c3)n2)cc1
853 s | Cc1ccc(NC(=O)NC2CCN(c3ccccc3)C2=O)cc1C (stereo unspecified)
887 s | CS(=O)(=O)N1CCC(C(=O)Nc2ccccc2)Oc2ccc(Cl)cc21 (stereo unspecified)
874 s | CCCn1c(-c2cccc(C(=O)NCc3ccc(SC)cc3)c2)nc2cccnc21
901 s | COC(=O)c1cc(S(=O)(=O)N2CCCC2C(=O)Nc2cc(C)ccc2C)cn1C (stereo unspecified)
644 s | CCN(CC)C(=O)Cn1cc(C(=O)C(=O)N2CCc3ccccc3C2)c2ccccc21
718 s | CCOC(=O)Cc1csc(NC(=O)Cn2nc3c(cc2=O)CCCC3)n1
1060 s | Cc1sc(C)c(S(=O)(=O)NCc2ccco2)c1-c1cc(C(F)(F)F)on1
598 s | CN1CCCc2cc(C(CNC(=O)C(=O)NC3CCCCC3)N(C)C)ccc21 (stereo unspecified)
596 s | CCC(=O)NCc1nc2c(n1CC)CN(C(=O)c1cccc(Br)c1)CC2
885 s | O=C(C1=NN(Cc2ccc(F)cc2)c2ccccc2S1(=O)=O)N1CCCCC1
781 s | Cc1ccc(-n2nc(N3CCN(C(=O)Nc4ccc(F)cc4F)CC3)ccc2=O)cc1

RP-LC retention time | SMILES
709 s | COc1ccccc1C1(CNC(=O)c2ccco2)CCOCC1
1170 s | COc1ccc(-c2noc(-c3nc(Cc4ccc(F)cc4)no3)n2)cc1
711 s | O=C(c1ccc(-c2cccs2)nc1)N1CCN(C2CCCCC2)CC1
862 s | COc1cc(NC(=O)N2CC(C)Oc3ccccc32)cc(OC)c1OC (stereo unspecified)
1040 s | COc1cccc(S(=O)(=O)N2CCC3(CC2)C(OC)C(=O)N3c2cccc(F)c2)c1 (stereo unspecified)
938 s | Cc1nn(-c2ccccc2)c(C)c1S(=O)(=O)N1CCC(C(=O)Nc2ccc(C#N)cc2)CC1
650 s | Cc1cc(C)n(-c2nc(CC(=O)Nc3ccc(N(C)C)cc3)cs2)n1
769 s | O=C([C@H]1C[C@@H](F)CN1S(=O)(=O)c1cccc(C(F)(F)F)c1)N1CCOCC1
643 s | CC(NC(=O)c1ccc(OC(F)(F)F)cc1)C(=O)N1CCN(c2ccccn2)CC1 (stereo unspecified)
931 s | CCS(=O)(=O)Nc1ccc(-c2noc(COc3ccc(F)cc3)n2)cc1
639 s | N#CCSc1nnc2ccc3ccccc3n12
821 s | O=C([C@@H]1C[C@H](F)CN1C(=O)Nc1ccc(C(F)(F)F)cc1)N1CCCCC1
1160 s | Cc1nc2c(sc3nc(-c4ccccc4)ccc32)c(=O)n1CC(=O)Nc1cccc(C(F)(F)F)c1
831 s | CCN1C=C(C(=O)OCc2c(C)noc2C)C(C)=NS1(=O)=O
676 s | O=C(Cc1ccc(F)cc1)Nc1ccc(-c2ccc3nncn3n2)cc1
700 s | Cc1nnc2c(=O)n(CC(=O)NCc3cccc(Cl)c3)c3cccnc3n12
988 s | O=C(NCc1cccc(Cl)c1)C1CCCN(c2nc3ccsc3c(=O)n2Cc2ccccc2)C1 (stereo unspecified)
898 s | O=C(Cn1cccc(-c2nc(-c3ccc(F)cc3)no2)c1=O)N1CCN(c2ccc(F)cc2)CC1
